Key:
[1] = test system: intestinal organoids; assay: Cell Counting Kit 8 cytotoxicity assay in intestinal organoids; format: cell-based, porcine; details: PM at concentrations less than 30 mM, 24 h
Method: Fig 2 PM restricts TGEV and PRCV infection in porcine intestinal organoids. (A) Intestinal organoids cultured in 96-well plate were incubated with different concentrations of PM for 24 h, which was tested by Cell Counting Kit 8. (B and C) The intestinal organoids monolayer was treated with indicated PM and infected with TGEV Miller (0.1 MOI) for 24 h, which was measured by IFA (B), scale bar: 50 µm, RT-qPCR, TCID50, and western blot (C). (D) Apical-out intestinal organoids were treated with indicated PM and infected TGEV Miller (1 MOI) for 48 h, which was determined by RT-qPCR, TCID50, and western blot. (E and F) The intestinal organoids monolayer was treated with different concentrations of PM and infected with PRCV for 24 h, which was determined by IFA (E), scale bar: 50 µm, RT-qPCR, TCID50, and western blot (F). (G) Apical-out intestinal organoids were treated with indicated PM and infected PRCV (1 MOI) for 48 h, which was detected by RT-qPCR, TCID50, and western blot. Results are presented as mean ± SD of data from three independent experiments. **, P ≤ 0.01; ***, P ≤ 0.001.
ST cells or intestinal organoids cultured in a 96-well plate were incubated with different concentrations of PM (0, 0.1, 0.25, 0.5, 1, 2.5, 5, 10, 20, and 30 mM) for 24 h. […] The absorbance of each well was then measured at 450 nm using a microplate reader to determine cell viability.

[2] = test system: APN; assay: APN expression in ST cells and porcine intestinal organoids (western blot, IFA); format: cell-based; details: PM 10 mM; for APN level, western blot, relative to WT without PM (=1) / APN level, western blot quantified by Image J, relative to no PM (=1): PRCV 0.1 MOI; for APN level, western blot quantified by Image J, relative to no PM (=1): ST cells
Method: Fig 5 PM blocks TGEV infection by degrading APN expression. (A, D, and G) ST cells (A) or intestinal organoids monolayer (D) or apical-out intestinal organoids (G) were treated with PM (10 mM) at 2, 4, 8, and 16 h, which was collected and determined by western blot. (B, E, and H) ST cells (B) or intestinal organoids monolayer (E) or apical-out intestinal organoids (H) were treated with PM (10 mM) at 16 h, which was measured by IFA, scale bar: 20 µm. (C, F, and I) ST cells (C) or intestinal organoids monolayer (F) or apical-out intestinal organoids (I) were treated with PM (10 mM) and infected with 0.1 MOI TGEV at 2, 4, 8, and 16 h. The cell samples were harvested and detected by western blot. (J) ST cells were transfected with empty vector or pCMV-HA-APN (pig) plasmids for 24 h, which was treated with H2O or PM and then infected with 0.1 MOI TGEV for 16 h. The cell samples were detected by western blot. All western blot results were calculated by Image J. All experiments were performed in triplicate.
Cotransfected cells were washed with cold PBS twice and lysed with NP40 lysis buffer (Beyotime, China, P0013F) supplemented with 1 mM PMSF (Beyotime, China, ST506) and phosphatase inhibitors (Beyotime, China, P1096). Lysis buffer containing cells was added to 20 µL of protein A+G agarose beads (Beyotime, China, P2055) and IgG (Santa Cruz, USA, 2025) on a rotating device for 4 h at 4°C to remove nonspecific proteins, after which the mixture was centrifuged at 2,500 rpm for 5 min. The supernatant was harvested, and anti-Flag/Myc/His/IgG antibodies were added to the samples on a rocking platform overnight at 4°C. Subsequently, 40 µL of protein A+G agarose beads were added to the supernatant containing the antibody, which was incubated for 4 h at 4°C on a rotating device. After washing with lysis buffer three times, the immunoprecipitates were collected by centrifugation, and the supernatant was discarded. Immunoprecipitated proteins were detected by western blotting. For the western blot, the proteins were separated by SDS‒PAGE and transferred onto a PVDF membrane (GE, USA, 10600023). The membranes were blocked in 5% nonfat milk at room temperature for 2 h and then incubated with specific primary antibodies overnight. Subsequently, the membrane was incubated with the secondary antibody for 1 h at room temperature. Finally, the proteins on the membranes were visualized with WesternBright ECL (Advansta, USA, K-12045-D50).
Fig. S5. PM blocks PRCV infection by degrading APN expression. (A) ST cells were treated with PM (10 mM) and infected with 0.1 MOI PRCV at 2 h, 4 h, 8 h and 16 h. The cell samples were harvested and determined by western blot. All western blot results were calculated by Image J. All experiments were performed in triplicate.
Fig. S8. PM inhibits PRCV infection by degrading APN via PIK3C3-mediated autophagy. (A-C) WT ST cells and PIK3C3 KO ST cells were treated with PM (10 mM) and infected with PRCV (0.1 MOI) for 16 h. Then the APN, PIK3C3, ATG14, BECN1, P62, PRCV N and LC3 were detected by western blot (A), and viral titers and PRCV N mRNA level were determined by TCID50 (B) and RT-qPCR (C) . (D-F) WT ST cells and PIK3C3 KO ST cells transfected with pCMV-Myc and pCMV-Myc-PIK3C3 respectively for 24 h were treated with PM (10 mM) and infected with PRCV (0.1 MOI) for 16 h. The APN, PIK3C3, P62, PRCV N and LC3 were determined by western blot (D). TCID50 (E) and RT-qPCR (F) were performed to detect viral titers and PRCV N m RNA level. All western blot results were calculated by Image J. Results are presented as mean ± SD of data from three independent experiments […]

## [K+].[K+].[O]=[Mo](=[O])([O-])[O-] [PM, potassium molybdate]
[1]
  cytotoxicity (Cell Counting Kit 8): did not cause significant cytotoxicity
[2]; Fig. S8A, PIK3C3 KO ST cells, 16 h
  APN level, western blot, relative to WT without PM (=1): 0.88
[2]; Fig. S8A, WT ST cells, 16 h
  APN level, western blot, relative to WT without PM (=1): 0.15
[2]; Fig. S8D, PIK3C3 KO ST cells with PIK3C3-Myc, 16 h
  APN level, western blot, relative to WT without PM (=1): 0.14
[2]; Fig. S8D, PIK3C3 KO ST cells without PIK3C3-Myc, 16 h
  APN level, western blot, relative to WT without PM (=1): 0.87
[2]; Fig. S8D, WT ST cells with pCMV-Myc, 16 h
  APN level, western blot, relative to WT without PM (=1): 0.1
[2]; 2-16 h, western blot and IFA
  APN expression in ST cells: decreased APN expression in ST cells
[2]; absence or presence of TGEV, different time points, western blot and IFA
  APN expression in intestinal organoid monolayers and apical-out organoids: decreased ex vivo APN expression
[2]; 2 h
  APN level, western blot quantified by Image J, relative to no PM (=1): 0.53
[2]; 4 h
  APN level, western blot quantified by Image J, relative to no PM (=1): 0.31
[2]; 8 h
  APN level, western blot quantified by Image J, relative to no PM (=1): 0.19
[2]; 16 h
  APN level, western blot quantified by Image J, relative to no PM (=1): 0.01

Reference: article PMC11784013, “Potassium molybdate blocks APN-dependent coronavirus entry by degrading receptor via PIK3C3-mediated autophagy” (Journal of Virology, 2024)
